These are literature values, as cited in patent US8969363B2, “Heterocyclic compounds and uses thereof” (Infinity Pharmaceuticals, Inc., priority 2011, dated 2015).

One series has as its system NZB/W F1 mice. The settings on record: prophylactic and therapeutic model; cited from earlier work.
Series [1] concerns p190 transduced leukemic cells in mice. Particulars: about 70 mg/kg twice daily; cited from earlier work.

As to `CC(C)C[C@H](NC(=O)[C@H](Cc1ccccc1)NC(=O)c1cnccn1)B(O)O` [Bortezimib, bortezomib], the “disease in the NZB/W model” value in the series on NZB/W F1 mice is given as “effective at blocking disease in the NZB/W model”.

As to `Cc1ccc(NC(=O)c2ccc(CN3CCN(C)CC3)cc2)cc1Nc1nccc(-c2cccnc2)n1` [imatinib], the leukemogenesis entry in series [1] is listed as “delay but not cure leukemogenesis”.
